Measurements taken from article PMC10300026, “Discovery of an OTUD3 inhibitor for the treatment of non-small cell lung cancer” (Cell Death & Disease, 2023).
pKd: −log10 of the molar value.

Target: T1, OTUD3 (Homo sapiens, UniProt Q5T2D3)
T1 construct: OTUD3 OTU (aa 52-209)
T1 sequence (Q5T2D3 52-209): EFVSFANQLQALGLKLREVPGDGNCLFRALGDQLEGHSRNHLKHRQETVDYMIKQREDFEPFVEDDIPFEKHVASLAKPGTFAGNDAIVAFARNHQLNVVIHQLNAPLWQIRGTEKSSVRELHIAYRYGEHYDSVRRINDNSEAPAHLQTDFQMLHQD
Assay: SPR (Biacore T200, CM5 chip); supported by in vitro K48/K63 di-ubiquitin cleavage inhibition
Type: binding

pKd: 6.49
SMILES: O=C(Nc1cccc(-c2nc3ccccc3[nH]2)c1)c1ccc(S(=O)(=O)N2CCc3ccccc3C2)cc1 [compound 16, 4-[dioxo(1,2,3,4-tetrahydroisoquinolin-2-yl)-λ6-sulfanyl]-N-[3-(1H-benzo[d]imidazol-2-yl)phenyl]benzamide]
